Experimental data reported in US20210045385A1, “PYRIDAZINONE-SUBSTITUTED KETOXIMES AS HERBICIDES” (FMC Corporation, priority 2018, published 2021).

What was measured:
Format in all cases: in vivo
[1] = test system: barnyardgrass (Echinochloa crus-galli); experiment: Test A postemergence, visual plant response rating; details: for Barnyardgrass plant response rating (0 to 100 scale): 500 g ai/ha, postemergence, 0 is no effect, 100 is complete control; for Barnyardgrass plant response rating: Postemergence, 125 g ai/ha, 0 to 100 scale (0 no effect, 100 complete control)
Procedure, shortened: (§1)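 Greenhouse pot test in loam–sand soil mix: compound in a surfactant-containing non-phytotoxic solvent applied preemergence (directed soil spray) or postemergence (one- to two-leaf plants, 2–10 cm). Injury scored visually after ~10 days, 0–100.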

[2] = test system: wheat (Triticum aestivum); experiment: Test A postemergence, visual plant response rating; details: for Wheat plant response rating (0 to 100 scale): 500 g ai/ha, postemergence, 0 is no effect, 100 is complete control; for Wheat plant response rating: Postemergence, 125 g ai/ha, 0 to 100 scale (0 no effect, 100 complete control)
Procedure, shortened: as §1

[3] = test system: Italian ryegrass (Lolium multiflorum); experiment: Test A postemergence, visual plant response rating; details: for Ryegrass, Italian plant response rating (0 to 100 scale): 500 g ai/ha, postemergence, 0 is no effect, 100 is complete control; for Ryegrass, Italian plant response rating: Postemergence, 125 g ai/ha, 0 to 100 scale (0 no effect, 100 complete control)
Procedure, shortened: as §1

corn (Zea mays) = experiment: Test A postemergence, visual plant response rating; details: for Corn plant response rating (0 to 100 scale): 500 g ai/ha, postemergence, 0 is no effect, 100 is complete control; for Corn plant response rating: Postemergence, 125 g ai/ha, 0 to 100 scale (0 no effect, 100 complete control)
Procedure, shortened: as §1

[4] = test system: ragweed (common ragweed, Ambrosia elatior); experiment: Test A postemergence, visual plant response rating; details: for Ragweed plant response rating (0 to 100 scale): 500 g ai/ha, postemergence, 0 is no effect, 100 is complete control; for Ragweed plant response rating: Postemergence, 125 g ai/ha, 0 to 100 scale (0 no effect, 100 complete control)
Procedure, shortened: as §1

[5] = test system: foxtail, green (green foxtail, Setaria viridis); experiment: Test A postemergence, visual plant response rating; details: for Foxtail, Green plant response rating (0 to 100 scale): 500 g ai/ha, postemergence, 0 is no effect, 100 is complete control; for Foxtail, Green plant response rating: Postemergence, 125 g ai/ha, 0 to 100 scale (0 no effect, 100 complete control)
Procedure, shortened: as §1

kochia (Kochia scoparia) [6] = experiment: Test A postemergence, visual plant response rating; details: for Kochia plant response rating (0 to 100 scale): 500 g ai/ha, postemergence, 0 is no effect, 100 is complete control; for Kochia plant response rating: Postemergence, 125 g ai/ha, 0 to 100 scale (0 no effect, 100 complete control)
Procedure, shortened: as §1

[7] = test system: blackgrass (Alopecurus myosuroides); experiment: Test A postemergence, visual plant response rating; details: for Blackgrass plant response rating (0 to 100 scale): 500 g ai/ha, postemergence, 0 is no effect, 100 is complete control; for Blackgrass plant response rating: Postemergence, 125 g ai/ha, 0 to 100 scale (0 no effect, 100 complete control)
Procedure, shortened: as §1

[8] = test system: galium (catchweed bedstraw, Galium aparine); experiment: Test A postemergence, visual plant response rating; details: for Galium plant response rating (0 to 100 scale): 500 g ai/ha, postemergence, 0 is no effect, 100 is complete control; for Galium plant response rating: Postemergence, 125 g ai/ha, 0 to 100 scale (0 no effect, 100 complete control)
Procedure, shortened: as §1

[9] = test system: pigweed (Amaranthus retroflexus); experiment: Test A postemergence, visual plant response rating; details: for Pigweed plant response rating (0 to 100 scale): 500 g ai/ha, postemergence, 0 is no effect, 100 is complete control; for Pigweed plant response rating: Postemergence, 125 g ai/ha, 0 to 100 scale (0 no effect, 100 complete control)
Procedure, shortened: as §1

[10] = test system: barnyardgrass (Echinochloa crus-galli); experiment: Test B flooded paddy test, visual plant response rating; details: 250 g ai/ha, Flood, applied to paddy water, 2-leaf stage, evaluated after 13 to 15 days
Procedure, shortened: (§2)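 Compounds added straight into paddy water of pots flooded to 3 cm, with 2-leaf-stage plants of the four species; water level held throughout.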

[11] = test system: sedge, umbrella (small-flower umbrella sedge, Cyperus difformis); experiment: as above; details: 250 g ai/ha, Flood, applied to paddy water, 2-leaf stage, evaluated after 13 to 15 days
Procedure, shortened: as §2

[12] = test system: ducksalad (Heteranhera limosa); experiment: as above; details: 250 g ai/ha, Flood, applied to paddy water, 2-leaf stage, evaluated after 13 to 15 days
Procedure, shortened: as §2

rice (Oryza sativa) = experiment: as above; details: 250 g ai/ha, Flood, applied to paddy water, 2-leaf stage, evaluated after 13 to 15 days
Procedure, shortened: as §2

[13] = test system: barnyardgrass (Echinochloa crus-galli); experiment: Test A preemergence, visual plant response rating; details: approx. 10 days
Procedure, shortened: as §1

[14] = test system: Italian ryegrass (Lolium multiflorum); experiment: Test A preemergence, visual plant response rating; details: approx. 10 days
Procedure, shortened: as §1

[15] = test system: ragweed (common ragweed, Ambrosia elatior); experiment: Test A preemergence, visual plant response rating; details: approx. 10 days
Procedure, shortened: as §1

[16] = test system: foxtail, green (green foxtail, Setaria viridis); experiment: Test A preemergence, visual plant response rating; details: approx. 10 days
Procedure, shortened: as §1

kochia (Kochia scoparia) [17] = experiment: Test A preemergence, visual plant response rating; details: approx. 10 days
Procedure, shortened: as §1

[18] = test system: pigweed (Amaranthus retroflexus); experiment: Test A preemergence, visual plant response rating; details: approx. 10 days
Procedure, shortened: as §1

Row | SMILES | Barnyardgrass plant response rating (0 to 100 scale) [1] | Barnyardgrass plant response rating [1] | Wheat plant response rating (0 to 100 scale) [2] | Wheat plant response rating [2] | Ryegrass, Italian plant response rating (0 to 100 scale) [3] | Ryegrass, Italian plant response rating [3] | Corn plant response rating (0 to 100 scale) (corn (Zea mays)) | Corn plant response rating (corn (Zea mays)) | Ragweed plant response rating (0 to 100 scale) [4] | Ragweed plant response rating [4] | Foxtail, Green plant response rating (0 to 100 scale) [5] | Foxtail, Green plant response rating [5] | Kochia plant response rating (0 to 100 scale) (kochia (Kochia scoparia) [6]) | Kochia plant response rating (kochia (Kochia scoparia) [6]) | Blackgrass plant response rating (0 to 100 scale) [7] | Blackgrass plant response rating [7] | Galium plant response rating (0 to 100 scale) [8] | Galium plant response rating [8] | Pigweed plant response rating (0 to 100 scale) [9] | Pigweed plant response rating [9] | also measured
1 | CCO/N=C(/c1cccc(C)c1C)c1c(O)c(C)nn(C)c1=O [Compound 24] | 30 | 0 | 0 | 0 | 40 | 10 | 0 | 0 | 60 | 30 | 20 | 0 | 20 | 0 | 40 | 10 | 60 | 50 | 60 | 30 | Plant response rating, Barnyardgrass (0 to 100 scale, 0 is no effect, 100 is complete control) [10]: 0; Plant response rating, Sedge, Umbrella (0 to 100 scale, 0 is no effect, 100 is complete control) [11]: 0; Plant response rating, Ducksalad (0 to 100 scale, 0 is no effect, 100 is complete control) [12]: 0; Plant response rating, Rice (0 to 100 scale, 0 is no effect, 100 is complete control) (rice (Oryza sativa)): 0; Barnyardgrass plant response rating (0 to 100 scale) ([13]; 125 g ai/ha Preemergence): 0; Barnyardgrass plant response rating (0 to 100 scale) ([13]; 500 g ai/ha Preemergence): 10; Ryegrass, Italian plant response rating (0 to 100 scale) ([14]; 125 g ai/ha Preemergence): 10; Ryegrass, Italian plant response rating (0 to 100 scale) ([14]; 500 g ai/ha Preemergence): 50; Ragweed plant response rating (0 to 100 scale) ([15]; 125 g ai/ha Preemergence): 30; Ragweed plant response rating (0 to 100 scale) ([15]; 500 g ai/ha Preemergence): 60; Foxtail, Green plant response rating (0 to 100 scale) ([16]; 125 g ai/ha Preemergence): 20; Foxtail, Green plant response rating (0 to 100 scale) ([16]; 500 g ai/ha Preemergence): 60; Kochia plant response rating (0 to 100 scale) (kochia (Kochia scoparia) [17]; 125 g ai/ha Preemergence): 0; Kochia plant response rating (0 to 100 scale) (kochia (Kochia scoparia) [17]; 500 g ai/ha Preemergence): 0; Pigweed plant response rating (0 to 100 scale) ([18]; 125 g ai/ha Preemergence): 20; Pigweed plant response rating (0 to 100 scale) ([18]; 500 g ai/ha Preemergence): 40
2 | Cc1ccccc1/C(=N\OC(C)C)c1c(O)c(C)nn(C)c1=O [Compound 20] | 50 | 30 | 0 | 0 | 50 | 20 | 0 | 0 | 80 | 60 | 60 | 30 | 50 | 0 | 60 | 20 | 90 | 80 | 70 | 60 | Plant response rating, Barnyardgrass (0 to 100 scale, 0 is no effect, 100 is complete control) [10]: 0; Plant response rating, Sedge, Umbrella (0 to 100 scale, 0 is no effect, 100 is complete control) [11]: 0; Plant response rating, Ducksalad (0 to 100 scale, 0 is no effect, 100 is complete control) [12]: 0; Plant response rating, Rice (0 to 100 scale, 0 is no effect, 100 is complete control) (rice (Oryza sativa)): 0; Barnyardgrass plant response rating (0 to 100 scale) ([13]; 125 g ai/ha Preemergence): 20; Barnyardgrass plant response rating (0 to 100 scale) ([13]; 500 g ai/ha Preemergence): 70; Ryegrass, Italian plant response rating (0 to 100 scale) ([14]; 125 g ai/ha Preemergence): 30; Ryegrass, Italian plant response rating (0 to 100 scale) ([14]; 500 g ai/ha Preemergence): 70; Ragweed plant response rating (0 to 100 scale) ([15]; 125 g ai/ha Preemergence): 30; Ragweed plant response rating (0 to 100 scale) ([15]; 500 g ai/ha Preemergence): 90; Foxtail, Green plant response rating (0 to 100 scale) ([16]; 125 g ai/ha Preemergence): 0; Foxtail, Green plant response rating (0 to 100 scale) ([16]; 500 g ai/ha Preemergence): 60; Kochia plant response rating (0 to 100 scale) (kochia (Kochia scoparia) [17]; 125 g ai/ha Preemergence): 0; Kochia plant response rating (0 to 100 scale) (kochia (Kochia scoparia) [17]; 500 g ai/ha Preemergence): 0; Pigweed plant response rating (0 to 100 scale) ([18]; 125 g ai/ha Preemergence): 80; Pigweed plant response rating (0 to 100 scale) ([18]; 500 g ai/ha Preemergence): 100
